Test results taken from ChEMBL document CHEMBL1201862, “PubChem BioAssay data set” (2004).
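Dose response: 5 concentrations. Exposure: 48 h. Format: 96-well plates. Endpoint: linear interpolation; highest concentration if not reached. GI50 = concentration required for 50% inhibition of growth.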 Calls of active or inactive are those of the source. Rule as the data show it: active = GI50 up to about 1.1 µM and inactive = higher.

How the values were obtained:
Experiment in all cases: growth of human tumour cells (NCI), 48 h
SF-295 = tested on: SF-295
HCC 2998 = tested on: HCC 2998
U-251 = tested on: U-251
Malme-3M = tested on: Malme-3M
OVCAR-5 = tested on: OVCAR-5
K562 = tested on: K562
ACHN = tested on: ACHN
MOLT-4 = tested on: MOLT-4
SW-620 = tested on: SW-620
TK-10 = tested on: TK-10
NCI-H522 = tested on: NCI-H522
HOP-92 = tested on: HOP-92
OVCAR-3 = tested on: OVCAR-3
786-0 = tested on: 786-0
RPMI-8226 = tested on: RPMI-8226
HCT-116 = tested on: HCT-116
EKVX = tested on: EKVX
M14 = tested on: M14
SF-539 = tested on: SF-539

Measured: GI50

COc1ccc(-c2[nH]c3ccccc3c2CCNS(=O)(=O)c2ccc(C)cc2)cc1
inactive: SF-295 > 8.41 µM | HCC 2998 9.68 µM | U-251 8.09 µM | Malme-3M > 10 µM | OVCAR-5 > 10 µM | K562 5.06 µM | ACHN > 8.59 µM | MOLT-4 4.21 µM | SW-620 > 10 µM | TK-10 > 7.8 µM | NCI-H522 7.93 µM | HOP-92 > 10 µM | OVCAR-3 7.23 µM | 786-0 > 10 µM | RPMI-8226 4.68 µM | HCT-116 > 8.85 µM | EKVX > 7.93 µM | M14 > 10 µM | SF-539 > 10 µM

O=C1CCC(=O)c2ccccc2N1
inactive: SF-295 > 100 µM | HCC 2998 > 100 µM | U-251 > 100 µM | Malme-3M > 100 µM | OVCAR-5 > 100 µM | K562 > 100 µM | ACHN > 100 µM | MOLT-4 > 100 µM | SW-620 > 100 µM | TK-10 > 100 µM | NCI-H522 > 100 µM | HOP-92 > 100 µM | OVCAR-3 > 100 µM | 786-0 > 100 µM | RPMI-8226 > 100 µM | HCT-116 > 100 µM | EKVX > 100 µM | M14 > 100 µM | SF-539 > 100 µM

Nc1nc2c(ncn2C2OC(CO)C(O)C2O)c(=O)o1 (stereo unspecified)
inactive: SF-295 > 100 µM | HCC 2998 5.82 µM | U-251 > 100 µM | Malme-3M > 100 µM | OVCAR-5 > 100 µM | K562 > 21.9 µM | ACHN > 83.8 µM | SW-620 > 33.4 µM | TK-10 > 100 µM | NCI-H522 18.6 µM | HOP-92 > 100 µM | OVCAR-3 > 100 µM | 786-0 > 100 µM | RPMI-8226 > 52.8 µM | HCT-116 > 82.2 µM | EKVX > 100 µM | M14 > 100 µM | SF-539 > 100 µM

CCOC(=O)N1CCc2cc(OC)c(OC)c3c2C1CC3=O (stereo unspecified)
inactive: SF-295 > 100 µM | HCC 2998 > 100 µM | U-251 > 100 µM | Malme-3M > 100 µM | OVCAR-5 > 100 µM | K562 > 100 µM | ACHN > 100 µM | MOLT-4 > 100 µM | SW-620 > 100 µM | TK-10 > 100 µM | NCI-H522 > 100 µM | HOP-92 > 100 µM | 786-0 > 100 µM | RPMI-8226 > 100 µM | HCT-116 > 100 µM | M14 > 100 µM | SF-539 > 100 µM

COC(=O)c1c(CC#N)cccc1CC#N
inactive: SF-295 > 100 µM | HCC 2998 > 100 µM | U-251 > 100 µM | Malme-3M > 100 µM | OVCAR-5 > 100 µM | K562 > 100 µM | ACHN > 100 µM | MOLT-4 > 100 µM | SW-620 > 100 µM | NCI-H522 > 100 µM | HOP-92 > 100 µM | OVCAR-3 > 100 µM | 786-0 > 100 µM | RPMI-8226 > 100 µM | HCT-116 > 100 µM | EKVX > 100 µM | M14 > 100 µM | SF-539 > 100 µM

C=C(CO)CC(O)c1cc(OC)ccc1OC (stereo unspecified)
inactive: SF-295 > 100 µM | HCC 2998 > 100 µM | U-251 > 100 µM | Malme-3M > 100 µM | OVCAR-5 > 100 µM | K562 > 100 µM | ACHN > 100 µM | MOLT-4 > 100 µM | SW-620 > 100 µM | TK-10 > 100 µM | NCI-H522 > 100 µM | HOP-92 > 100 µM | OVCAR-3 > 100 µM | 786-0 > 100 µM | RPMI-8226 > 100 µM | EKVX > 100 µM | M14 > 100 µM | SF-539 > 100 µM

COc1ccn(CC(=O)c2cc3ccccc3[nH]2)c(=O)n1
inactive: SF-295 > 100 µM | HCC 2998 > 100 µM | U-251 > 100 µM | Malme-3M > 100 µM | OVCAR-5 > 100 µM | K562 > 100 µM | ACHN > 100 µM | MOLT-4 > 100 µM | SW-620 > 100 µM | TK-10 > 100 µM | NCI-H522 > 100 µM | HOP-92 49.7 µM | OVCAR-3 > 100 µM | 786-0 > 100 µM | RPMI-8226 > 100 µM | HCT-116 > 100 µM | EKVX > 100 µM | M14 > 100 µM | SF-539 > 100 µM

C=C(C)CCOC(c1ccccc1)(c1ccccc1)c1ccccc1
inactive: SF-295 37.4 µM | HCC 2998 25.6 µM | U-251 50 µM | Malme-3M 28.4 µM | OVCAR-5 > 100 µM | K562 > 100 µM | ACHN 25.7 µM | MOLT-4 51.3 µM | SW-620 82.4 µM | TK-10 83.4 µM | NCI-H522 18.9 µM | HOP-92 33.6 µM | OVCAR-3 64.4 µM | 786-0 > 100 µM | RPMI-8226 33.9 µM | HCT-116 18.7 µM | M14 32.8 µM | SF-539 91 µM

CCCCCCCCCCCCCC(=O)OCC1OC(n2cc(F)c(=O)[nH]c2=O)C(NC(=O)OCc2ccccc2)C(OC(=O)CCCCCCCCCCCCC)C1O (stereo unspecified)
inactive: SF-295 22.9 µM | HCC 2998 > 100 µM | U-251 > 100 µM | Malme-3M > 100 µM | OVCAR-5 25.6 µM | K562 > 100 µM | ACHN > 100 µM | MOLT-4 > 100 µM | SW-620 > 100 µM | TK-10 > 100 µM | NCI-H522 > 100 µM | HOP-92 > 100 µM | OVCAR-3 > 100 µM | 786-0 > 100 µM | RPMI-8226 > 100 µM | HCT-116 > 100 µM | EKVX > 100 µM | M14 > 100 µM | SF-539 > 100 µM

Cc1ccc(S(=O)(=O)N2CCC3(C(/C=C/c4ccccc4)=Nc4ccccc43)C2c2ccccc2)cc1 (stereo unspecified)
inactive: SF-295 > 100 µM | HCC 2998 > 100 µM | U-251 > 100 µM | Malme-3M > 100 µM | OVCAR-5 > 100 µM | K562 21.3 µM | ACHN > 100 µM | SW-620 1.52 µM | TK-10 > 100 µM | NCI-H522 > 100 µM | HOP-92 > 100 µM | OVCAR-3 > 100 µM | 786-0 > 100 µM | RPMI-8226 > 100 µM | HCT-116 > 100 µM | EKVX > 100 µM | M14 > 100 µM | SF-539 > 100 µM

N#C/C(=C1\OC(=N)C(c2ccc(Cl)cc2)=C1O)c1ccc(Cl)cc1
inactive: SF-295 15.8 µM | HCC 2998 17.1 µM | U-251 15.3 µM | Malme-3M 19.1 µM | OVCAR-5 2.99 µM | K562 23.5 µM | ACHN 17.6 µM | MOLT-4 17.3 µM | SW-620 13.2 µM | TK-10 26.4 µM | NCI-H522 12 µM | HOP-92 17.9 µM | OVCAR-3 14.8 µM | 786-0 16 µM | RPMI-8226 19 µM | HCT-116 17.3 µM | EKVX 17.7 µM | M14 15.2 µM | SF-539 14.5 µM

COC(=O)OCC1OC(N2C(=O)NC(=O)C(Br)C2N=[N+]=[N-])CC1OC(=O)OC (stereo unspecified)
inactive: SF-295 > 100 µM | HCC 2998 > 100 µM | U-251 > 100 µM | Malme-3M > 100 µM | OVCAR-5 > 100 µM | ACHN > 100 µM | SW-620 > 100 µM | TK-10 > 100 µM | NCI-H522 66.4 µM | HOP-92 > 100 µM | OVCAR-3 > 100 µM | 786-0 > 100 µM | RPMI-8226 > 100 µM | HCT-116 > 100 µM | M14 > 100 µM | SF-539 > 100 µM

COc1ccc2c(c1)[n+]([O-])c(C(=O)C/C(=N/NC(=O)C[N+](C)(C)C)C(=O)Nc1cccc(C)c1C)c(C)[n+]2[O-]
inactive: SF-295 > 100 µM | HCC 2998 > 100 µM | U-251 > 100 µM | Malme-3M > 100 µM | OVCAR-5 67.1 µM | K562 > 100 µM | ACHN > 100 µM | SW-620 > 100 µM | NCI-H522 > 100 µM | HOP-92 59 µM | OVCAR-3 > 100 µM | 786-0 > 100 µM | RPMI-8226 > 100 µM | HCT-116 > 100 µM | EKVX > 100 µM | M14 > 100 µM | SF-539 > 100 µM

C=CC(=O)NCCSCCCOC1(C(=O)O)CC(O)C(NC(C)=O)C(C(O)C(O)CO)O1 (stereo unspecified)
inactive: SF-295 > 100 µM | HCC 2998 > 100 µM | U-251 > 100 µM | Malme-3M > 100 µM | OVCAR-5 > 100 µM | K562 > 100 µM | ACHN > 100 µM | MOLT-4 > 100 µM | SW-620 > 100 µM | TK-10 > 100 µM | NCI-H522 > 100 µM | HOP-92 > 100 µM | OVCAR-3 > 100 µM | 786-0 > 100 µM | RPMI-8226 > 100 µM | HCT-116 > 100 µM | M14 > 100 µM | SF-539 > 100 µM

CC(=O)OC[C@]1(O)CC[C@@]23CC1C[C@@H]2CCC1C(C)(C)CCC[C@@]13C (stereo partly specified)
inactive: SF-295 17.6 µM | HCC 2998 17.4 µM | U-251 14 µM | Malme-3M 15.6 µM | OVCAR-5 11.3 µM | K562 4.76 µM | ACHN 15.7 µM | MOLT-4 1.77 µM | SW-620 10.7 µM | TK-10 13.4 µM | NCI-H522 2.64 µM | HOP-92 14.4 µM | OVCAR-3 17.1 µM | 786-0 17.3 µM | RPMI-8226 9.23 µM | HCT-116 11.9 µM | M14 13.9 µM | SF-539 16.4 µM
